Values after ≈ are worked out from the molar mass of the structure shown.
Assays:
A. baumannii [1] = test: Neutropaenic mouse thigh infection model; assay type: in vivo; details: 24 h
Protocol: An intramuscular inoculation of a bacterial suspension of approximately 10^6 CFU per thigh was used to induce the infection. Treatment started 2 h after infection. […] In the pneumonia model, an intratracheal inoculation of approximately 10^7 CFU per lung was used to induce the infection. Treatment started 2 h after infection. […] Standard of care antibiotic was tested at a single dose in both infection models. GraphPad Prism 8 was used for graphical presentation and to analyse data.

A. baumannii [2] = test: microbe, parasite or virus in culture; details: CAMHB; for MIC: MCPs read at 80% inhibition
Protocol: MIC determinations were performed using the broth microdilution method and in line with CLSI guidelines M07 and M100 (refs. [37],[38]). Bacterial inocula were prepared by diluting a 0.5 McFarland suspension in CAMHB or lysogeny broth (LB) specifically for A. baylyi isolates. […] MIC values of all of the tested antibiotics were read as the lowest compound concentration inhibiting bacterial growth by naked eye or beyond which the OD600 ceased to decrease.

A. baumannii ACC01073 = test: Neutropaenic mouse lung infection (pneumonia) model; assay type: in vivo; details: 120 mg/kg/day q12h
Protocol: An intramuscular inoculation of a bacterial suspension of approximately 10^6 CFU per thigh was used to induce the infection. Treatment started 2 h after infection. […] Thigh bacterial burden was determined after 24 h of treatment. In the pneumonia model, an intratracheal inoculation of approximately 10^7 CFU per lung was used to induce the infection. Treatment started 2 h after infection. […] Lung bacterial burden was determined after 24 h treatment. Standard of care antibiotic was tested at a single dose in both infection models. GraphPad Prism 8 was used for graphical presentation and to analyse data.

Q: Which “Bacterial Load (average)” value (A. baumannii [1]; A. baumannii ACC01085, neutropenic mice, 60 mg/kg/day q8h, summary table, same as average Log CFU/Thigh) does the source give for colistin [reference compound] here?
A: 3.39

Q: And the MIC (A. baumannii [2]; ACC00445)?
A: 0.25 µg/mL

Q: What about the MIC (A. baumannii [2]; ACC00535) of the same molecule?
A: 0.5 µg/mL

Q: What about the MIC (A. baumannii [2]; ACC01073) of the same molecule?
A: >16 µg/mL

Q: What about the MIC (A. baumannii [2]; ACC01077) of the same molecule?
A: 16 µg/mL

Q: What about the MIC (A. baumannii [2]; ACC01085 / AR0307) of the same molecule?
A: 4 µg/mL

Q: And the MIC (A. baumannii [2]; ATCC 17978)?
A: 0.25 µg/mL

Q: What about the MIC (A. baumannii [2]; ATCC 19606) of the same molecule?
A: 0.5 µg/mL

Q: And the MIC (A. baumannii [2]; ATCC BAA-747)?
A: 0.5 µg/mL

Q: What about the MIC (A. baumannii [2]; ROB08701) of the same molecule?
A: 1 µg/mL

Q: And the MIC (A. baumannii [2]; ROB08702)?
A: 2 µg/mL

Q: And the MIC (A. baumannii [2]; ROB08703)?
A: 0.5 µg/mL

Q: What about the MIC (A. baumannii [2]; ROB08704) of the same molecule?
A: 2 µg/mL

Q: What about the MIC (A. baumannii [2]; ROB08705) of the same molecule?
A: 0.5 µg/mL

Q: What about the MIC (A. baumannii [2]; ROB08706) of the same molecule?
A: 0.25 µg/mL

Q: And the MIC (A. baumannii [2]; ROB08707)?
A: 2 µg/mL

Q: And the MIC (A. baumannii [2]; ROB08708)?
A: 0.25 µg/mL

Q: What about the MIC (A. baumannii [2]; ROB08709) of the same molecule?
A: 1 µg/mL

Q: And the MIC (A. baumannii [2]; ROB08710)?
A: 2 µg/mL

Q: Which “log CFU/thigh, average” value (A. baumannii [1]; A. baumannii ACC00535 (APV00535), neutropenic mice, MERO 100 mg/kg, average of 8 samples) does the source give for `C[C@@H](O)[C@H]1C(=O)N2C(C(=O)O)=C(S[C@@H]3CN[C@H](C(=O)N(C)C)C3)[C@H](C)[C@H]12` [MRP] here?
A: 8.52 log CFU/thigh

Q: And the “delta 2 hr; Δ log (vs. veh 2hrs)” value (A. baumannii [1]; A. baumannii ACC00535 (APV00535), neutropenic mice, MERO 100 mg/kg, change of average log CFU/thigh vs start of therapy (2 h))?
A: 2.37

Q: For `CN(C)c1cc(NC(=O)CNC(C)(C)C)c(O)c2c1C[C@H]1C[C@H]3[C@H](N(C)C)C(O)=C(C(N)=O)C(=O)[C@@]3(O)C(O)=C1C2=O` [tigecycline, reference compound], which MIC90 (A. baumannii [2]; Acinetobacter baumannii, 129 clinical isolates) is on record?
A: 8 µg/mL (≈ 13.7 µM)

Q: What about the MIC (A. baumannii [2]; Acinetobacter baumannii, ACC00445) of the same molecule?
A: 2 µg/mL (≈ 3.41 µM)

Q: And the MIC (A. baumannii [2]; Acinetobacter baumannii, ACC00535)?
A: 0.5 µg/mL (≈ 0.854 µM)

Q: And the MIC (A. baumannii [2]; Acinetobacter baumannii, ACC01073)?
A: 4 µg/mL (≈ 6.83 µM)

Q: What about the MIC (A. baumannii [2]; Acinetobacter baumannii, ACC01077) of the same molecule?
A: 2 µg/mL (≈ 3.41 µM)

Q: And the MIC (A. baumannii [2]; Acinetobacter baumannii, ACC01085 / AR0307)?
A: 4 µg/mL (≈ 6.83 µM)

Q: What about the MIC (A. baumannii [2]; Acinetobacter baumannii, ATCC17978, ATCC 17978) of the same molecule?
A: 0.5 µg/mL (≈ 0.854 µM)

Q: What about the MIC (A. baumannii [2]; Acinetobacter baumannii, ATCC19606, ATCC 19606) of the same molecule?
A: 1 µg/mL (≈ 1.71 µM)

Q: What about the MIC (A. baumannii [2]; Acinetobacter baumannii, ATCCBAA747, ATCC BAA-747) of the same molecule?
A: 0.25 µg/mL (≈ 0.427 µM)

Q: What about the MIC (A. baumannii [2]; Acinetobacter baumannii, ROB08701) of the same molecule?
A: 1 µg/mL (≈ 1.71 µM)

Q: And the MIC (A. baumannii [2]; Acinetobacter baumannii, ROB08702)?
A: 4 µg/mL (≈ 6.83 µM)

Q: What about the MIC (A. baumannii [2]; Acinetobacter baumannii, ROB08703) of the same molecule?
A: 16 µg/mL (≈ 27.3 µM)

Q: And the MIC (A. baumannii [2]; Acinetobacter baumannii, ROB08704)?
A: 0.5 µg/mL (≈ 0.854 µM)

Q: And the MIC (A. baumannii [2]; Acinetobacter baumannii, ROB08705)?
A: 1 µg/mL (≈ 1.71 µM)

Q: What about the MIC (A. baumannii [2]; Acinetobacter baumannii, ROB08706) of the same molecule?
A: 8 µg/mL (≈ 13.7 µM)

Q: What about the MIC (A. baumannii [2]; Acinetobacter baumannii, ROB08707) of the same molecule?
A: 0.5 µg/mL (≈ 0.854 µM)

Q: And the MIC (A. baumannii [2]; Acinetobacter baumannii, ROB08708)?
A: 1 µg/mL (≈ 1.71 µM)

Q: What about the MIC (A. baumannii [2]; Acinetobacter baumannii, ROB08709) of the same molecule?
A: 1 µg/mL (≈ 1.71 µM)

Q: And the MIC (A. baumannii [2]; Acinetobacter baumannii, ROB08710)?
A: 1 µg/mL (≈ 1.71 µM)

Q: What about the “ΔLog CFU/lungs vs A/0h” value (A. baumannii ACC01073) of the same molecule?
A: 0.70

Q: What about the “CFU/lungs, average” value (A. baumannii ACC01073; n = 6) of the same molecule?
A: 4.23E+08

Q: And the “Log CFU/lungs, average (bacterial load)” value (A. baumannii ACC01073; n = 6)?
A: 8.39
